The results in this text go back to patent US20230382925A1, “MODULATORS OF CYSTIC FIBROSIS TRANSMEMBRANE CONDUCTANCE REGULATOR” (VERTEX PHARMACEUTICALS INCORPORATED, priority 2020, published 2023).

In general, EC50 refers to the concentration giving half of the maximal effect.

Where two headings read alike, the source gives them in different places.

The test has as its target CFTR (Homo sapiens, UniProt P13569). Briefly: Membrane Potential Dye, Enteroid Assay B. The format is cell-based. In a few lines: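 Human intestinal enteroid cells exposed to compound 18-24 h at 37 °C, then loaded with methyl oxonol membrane-potential dye plus CaCC blockers. Chloride transport triggered in chloride-free buffer with 10 μM forskolin, 100 μM IBMX, 300 nM Compound III; fluorescence read 15 min, expressed as % of triple-corrector/potentiator combination control.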

Sequence of CFTR (P13569 with tags, fused parts or gaps DEL508-508): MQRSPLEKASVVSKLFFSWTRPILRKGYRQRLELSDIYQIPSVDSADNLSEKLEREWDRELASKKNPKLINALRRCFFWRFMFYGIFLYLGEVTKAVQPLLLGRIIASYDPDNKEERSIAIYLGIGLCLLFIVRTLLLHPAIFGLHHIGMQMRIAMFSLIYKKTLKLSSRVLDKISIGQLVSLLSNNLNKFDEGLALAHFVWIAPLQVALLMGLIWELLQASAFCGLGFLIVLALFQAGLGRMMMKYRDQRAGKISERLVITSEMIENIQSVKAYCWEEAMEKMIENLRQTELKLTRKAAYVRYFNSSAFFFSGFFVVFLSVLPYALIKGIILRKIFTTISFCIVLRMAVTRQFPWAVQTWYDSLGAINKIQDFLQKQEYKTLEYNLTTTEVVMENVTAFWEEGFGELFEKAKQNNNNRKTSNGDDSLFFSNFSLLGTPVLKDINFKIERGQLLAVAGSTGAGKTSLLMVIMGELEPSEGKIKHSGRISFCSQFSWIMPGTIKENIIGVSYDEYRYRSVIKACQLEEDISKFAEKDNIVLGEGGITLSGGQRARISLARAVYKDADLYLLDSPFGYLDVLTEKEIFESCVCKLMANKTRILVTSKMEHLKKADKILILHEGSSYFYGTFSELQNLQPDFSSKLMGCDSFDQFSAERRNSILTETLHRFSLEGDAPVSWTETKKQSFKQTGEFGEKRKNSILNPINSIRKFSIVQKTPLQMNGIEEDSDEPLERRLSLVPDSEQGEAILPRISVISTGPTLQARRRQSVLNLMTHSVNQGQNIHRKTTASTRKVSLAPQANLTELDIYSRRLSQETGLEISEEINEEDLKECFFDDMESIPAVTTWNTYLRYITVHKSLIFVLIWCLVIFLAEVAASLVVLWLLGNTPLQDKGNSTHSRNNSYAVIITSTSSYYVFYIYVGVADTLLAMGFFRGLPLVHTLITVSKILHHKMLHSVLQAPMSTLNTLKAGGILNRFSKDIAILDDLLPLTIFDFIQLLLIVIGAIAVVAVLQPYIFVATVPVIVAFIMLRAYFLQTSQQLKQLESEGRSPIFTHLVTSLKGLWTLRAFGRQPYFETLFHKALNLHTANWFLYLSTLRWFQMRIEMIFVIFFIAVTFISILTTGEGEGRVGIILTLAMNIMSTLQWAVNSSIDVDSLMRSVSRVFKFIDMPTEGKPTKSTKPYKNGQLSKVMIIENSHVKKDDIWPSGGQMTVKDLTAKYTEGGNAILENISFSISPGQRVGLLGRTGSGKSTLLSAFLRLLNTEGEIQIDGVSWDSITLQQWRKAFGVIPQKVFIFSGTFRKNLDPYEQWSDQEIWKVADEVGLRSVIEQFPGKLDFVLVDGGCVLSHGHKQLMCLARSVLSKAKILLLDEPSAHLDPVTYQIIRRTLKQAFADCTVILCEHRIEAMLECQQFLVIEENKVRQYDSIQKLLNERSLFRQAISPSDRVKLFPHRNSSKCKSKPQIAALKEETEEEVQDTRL

On to `Cc1cccc(C)c1-c1cc2nc(n1)NS(=O)(=O)c1cccc(c1)C(=O)N(C1CC(N3CCS(=O)(=O)CC3)C1)[C@H](CC(C)C)CO2` (stereo partly drawn) [Compound 72, (11R)-6-(2,6-dimethylphenyl)-12-[3-(1,1-dioxo-1,4-thiazinan-4-yl)cyclobutyl]-11-isobutyl-2,2-dioxo-9-oxa-2λ^6-thia-3,5,12,19-tetrazatricyclo[12.3.1.14,8]nonadeca-1(18),4(19),5,7,14,16-hexaen-13-one], for which, for the setting “Table 9”, the “Ent. B Max Activity (%)” value is “+++ (+++ is >60%)”. Also, where the note is “Table 9, read-out: Ent. B EC50”, the EC50 is under 1 µM.
Consider `Cc1cccc(C)c1-c1cc2nc(n1)NS(=O)(=O)c1cccc(c1)C(=O)N(C1CC(NC34CC(C3)C4)C1)[C@H](CC(C)C)CO2` (stereo partly drawn) [Compound 73, (11R)-12-[3-(1-Bicyclo[1.1.1]pentanylamino)cyclobutyl]-6-(2,6-dimethylphenyl)-11-isobutyl-2,2-dioxo-9-oxa-2λ^6-thia-3,5,12,19-tetrazatricyclo[12.3.1.14,8]nonadeca-1(18),4(19),5,7,14,16-hexaen-13-one], for which the “Ent. B Max Activity (%)” value (Table 9) is “+++ (+++ is >60%)”. Besides, under “Table 9, read-out: Ent. B EC50”, the EC50 was under 1 µM.
As for `[H][C@]1(N2C(=O)c3cccc(c3)S(=O)(=O)Nc3nc(cc(-c4c(C)cccc4C)n3)OC[C@H]2CC2(C(F)(F)F)CC2)C[C@@]2(C[C@H](NC(=O)OC(C)C)C2)C1` (stereo partly drawn) [Compound 78, Isopropyl ((2S,4s,6S)-6-((R)-1^6-(2,6-dimethylphenyl)-3,3-dioxido-5-oxo-7-((1-(trifluoromethyl)cyclopropyl)methyl)-9-oxa-3-thia-2,6-diaza-1(2,4)-pyrimidina-4(1,3)-benzenacyclononaphane-6-yl)spiro[3.3]heptan-2-yl)carbamate], the “Ent. B Max Activity (%)” value is given as “+++ (+++ is >60%)”. Besides, under “read-out: Ent. B EC50”, the EC50 was under 1 µM.
For `Cc1cccc(C)c1-c1cc2nc(n1)NS(=O)(=O)c1cccc(c1)C(=O)N([C@H]1C[C@]3(C[C@H](NC(=O)OC(C)C)C3)C1)[C@H](CC1(C(F)(F)F)CC1)CO2` (stereo partly drawn) [Compound 79, Isopropyl ((2R,4r,6R)-6-((R)-1^6-(2,6-dimethylphenyl)-3,3-dioxido-5-oxo-7-((1-(trifluoromethyl)cyclopropyl)methyl)-9-oxa-3-thia-2,6-diaza-1(2,4)-pyrimidina-4(1,3)-benzenacyclononaphane-6-yl)spiro[3.3]heptan-2-yl)carbamate], in that order: “+++ (+++ is >60%)” and under 1 µM.
Regarding `Cc1cccc(C)c1-c1cc2nc(n1)NS(=O)(=O)c1cccc(c1)C(=O)N([C@H]1C[C@]3(C[C@@H](N)C3)C1)[C@H](CC1(C(F)(F)F)CC1)CO2` (stereo partly drawn) [Compound 80, (R)-6-((2S,4s,6S)-6-Aminospiro[3.3]heptan-2-yl)-1^6-(2,6-dimethylphenyl)-7-((1-(trifluoromethyl)cyclopropyl)methyl)-9-oxa-3-thia-2,6-diaza-1(2,4)-pyrimidina-4(1,3)-benzenacyclononaphan-5-one 3,3-dioxide], for the setting “Table 9”, the “Ent. B Max Activity (%)” value is on record as “+++ (+++ is >60%)”. Under “Table 9, read-out: Ent. B EC50”, the EC50 was under 1 µM.
For `Cc1cccc(C)c1-c1cc2nc(n1)NS(=O)(=O)c1cccc(c1)C(=O)N([C@H]1C[C@@]3(C[C@@H](N)C3)C1)[C@H](CC1(C(F)(F)F)CC1)CO2` (stereo partly drawn) [Compound 81, (R)-6-((2R,4r,6R)-6-Aminospiro[3.3]heptan-2-yl)-1^6-(2,6-dimethylphenyl)-7-((1-(trifluoromethyl)cyclopropyl)methyl)-9-oxa-3-thia-2,6-diaza-1(2,4)-pyrimidina-4(1,3)-benzenacyclononaphan-5-one 3,3-dioxide], in that order: “+++ (+++ is >60%)” and under 1 µM.
